Each structure is given as a SMILES string. Some results are limits rather than exact numbers.

In this experiment the test system is Bmi-1 protein. Description: Sandwich ELISA Assay (Bmi-1 protein level in HT-1080 cells after compound treatment). Type of experiment: cell-based. As to conditions: Table 1, Bmi-1 sandwich ELISA, read-out: ELISA EC50 value for Bmi-1 protein. A digest of the protocol: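 HT-1080 cells exposed to compounds for 40–48 h at 37 °C (0.5% DMSO final), then lysed. Bmi-1 in lysates measured by sandwich ELISA (mouse monoclonal capture, rabbit anti-Bmi-1 detection, HRP anti-rabbit, TMB), read at OD450 with OD570 reference against a recombinant Bmi-1 standard curve (0–8000 pg/mL).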
In general terms: An ELISA detects its analyte on a solid surface through an enzyme-linked reagent.
For `Cc1ccc(Nc2cncc(-c3c(C)nn4ccccc34)n2)cc1` [compound 566, N-(4-methylphenyl)-6-(2-methylpyrazolo[1,5-a]pyridin-3-yl)pyrazin-2-amine], the half-maximal effective concentration (EC50) fell in the range of 1 to 10 nM.

Turning to `Cc1nn2ccccc2c1-c1cncc(Nc2ccc(Cl)cc2)n1` [compound 567, N-(4-chlorophenyl)-6-(2-methylpyrazolo[1,5-a]pyridin-3-yl)pyrazin-2-amine], the concentration giving a half-maximal response (EC50) was in the range of 10 to 100 nM. Next, `Cc1nn2ccccc2c1-c1cncc(Nc2ccc(F)cc2)n1` [compound 568, N-(4-fluorophenyl)-6-(2-methylpyrazolo[1,5-a]pyridin-3-yl)pyrazin-2-amine]: 100 to 3000 nM. Next, `COc1cccc(Nc2cncc(-c3c(C)nn4ccccc34)n2)c1` [compound 569, N-(3-methoxyphenyl)-6-(2-methylpyrazolo[1,5-a]pyridin-3-yl)pyrazin-2-amine]: 10 to 100 nM. For `Cc1nn2ccccc2c1-c1cncc(Nc2cccc(Cl)c2)n1` [compound 570, N-(3-chlorophenyl)-6-(2-methylpyrazolo[1,5-a]pyridin-3-yl)pyrazin-2-amine] the value was 100 to 3000 nM; for `Cc1nn2ccccc2c1-c1cncc(Nc2ccc(C#N)cc2)n1` [compound 571, 4-{[6-(2-methylpyrazolo[1,5-a]pyridin-3-yl)pyrazin-2-yl]amino}benzonitrile], 10 to 100 nM. As to `COC(=O)c1ccc(Nc2cncc(-c3c(C)nn4ccccc34)n2)cc1` [compound 572, methyl 4-{[6-(2-methylpyrazolo[1,5-a]pyridin-3-yl)pyrazin-2-yl]amino}benzoate], the EC50 lay within 1 to 10 nM. For `COc1ccc(Nc2cncc(-n3c(C)nc4cc(F)c(F)cc43)n2)cc1` [compound 573, 6-(5,6-difluoro-2-methyl-1H-benzimidazol-1-yl)-N-(4-methoxyphenyl)pyrazin-2-amine] the value was 100 to 3000 nM; for `Cc1ccc(Nc2cncc(-n3c(C)nc4cc(F)c(F)cc43)n2)cc1` [compound 574, 6-(5,6-difluoro-2-methyl-1H-benzimidazol-1-yl)-N-(4-methylphenyl)pyrazin-2-amine], 100 to 3000 nM. For `Cc1nc2cc(F)c(F)cc2n1-c1cncc(Nc2ccc(Cl)cc2)n1` [compound 575, N-(4-chlorophenyl)-6-(5,6-difluoro-2-methyl-1H-benzimidazol-1-yl)pyrazin-2-amine] the value was 10 to 100 nM; for `COc1cc(C)ccc1Nc1cncc(-n2c(C)nc3ccccc32)n1` [compound 576, N-(2-methoxy-4-methylphenyl)-6-(2-methyl-1H-benzimidazol-1-yl)pyrazin-2-amine], 100 to 3000 nM. For `COc1ccc(Nc2cc(-n3c(C)ccc3C)cc(-n3c(C)nc4ccccc43)n2)cc1` [compound 577, 4-(2,5-dimethyl-1H-pyrrol-1-yl)-N-(4-methoxyphenyl)-6-(2-methyl-1H-benzimidazol-1-yl)pyridin-2-amine] the value was 100 to 3000 nM; for `COc1cccc(Nc2cncc(-n3c(C)nc4cc(F)c(F)cc43)n2)c1` [compound 578, 6-(5,6-difluoro-2-methyl-1H-benzimidazol-1-yl)-N-(3-methoxyphenyl)pyrazin-2-amine], 100 to 3000 nM. Consider `Cc1nc2cc(F)c(F)cc2n1-c1cncc(Nc2ccc3c(c2)OC(F)(F)O3)n1` [compound 579, N-(2,2-difluoro-1,3-benzodioxol-5-yl)-6-(5,6-difluoro-2-methyl-1H-benzimidazol-1-yl)pyrazin-2-amine], for which the EC50 fell in the range of 100 to 3000 nM.

As to `COc1ccc(Nc2cc(N)cc(-n3c(C)nc4ccccc43)n2)cc1` [compound 580, N^2-(4-methoxyphenyl)-6-(2-methyl-1H-benzimidazol-1-yl)pyridine-2,4-diamine], the EC50 was in the range of 10 to 100 nM. Next, `Cc1ccc(Nc2cncc(-n3c(C)nc4ccccc43)n2)c(O)c1` [compound 582, 5-methyl-2-{[6-(2-methyl-1H-benzimidazol-1-yl)pyrazin-2-yl]amino}phenol]: 1 to 10 nM; `COc1ccc(Nc2cc(C#N)cc(-n3c(C)nc4cc(F)c(F)cc43)n2)cc1` [compound 583, 2-(5,6-difluoro-2-methyl-1H-benzimidazol-1-yl)-6-[(4-methoxyphenyl)amino]pyridine-4-carbonitrile]: 1 to 10 nM; `Cc1nc2ccc(F)cc2n1-c1cc(C#N)cc(Nc2ccc(OC(F)(F)F)cc2)n1` [compound 588, 2-(6-fluoro-2-methyl-1H-benzimidazol-1-yl)-6-{[4-(trifluoromethoxy)phenyl]amino}pyridine-4-carbonitrile]: 10 to 100 nM. For `COc1ccc(Nc2cc(C#N)cc(-n3c(C)nc4ccc(F)cc43)n2)cc1` [compound 589, 2-(6-fluoro-2-methyl-1H-benzimidazol-1-yl)-6-[(4-methoxyphenyl)amino]pyridine-4-carbonitrile] the value was 10 to 100 nM; for `COc1ccc(Nc2cncc(-c3c(C)nc4ccc(F)cn34)n2)cc1` [compound 592, 6-(6-fluoro-2-methylimidazo[1,2-a]pyridin-3-yl)-N-(4-methoxyphenyl)pyrazin-2-amine], below 1 nM. Next, `Cc1ccc(Nc2cc(C#N)cc(-n3c(C)nc4cc(F)c(F)cc43)n2)cc1` [compound 599, 2-(5,6-difluoro-2-methyl-1H-benzimidazol-1-yl)-6-[(4-methylphenyl)amino]pyridine-4-carbonitrile]: 10 to 100 nM; `Cc1nc2cc(F)c(F)cc2n1-c1cc(C#N)cc(Nc2ccc(Cl)cc2)n1` [compound 600, 2-[(4-chlorophenyl)amino]-6-(5,6-difluoro-2-methyl-1H-benzimidazol-1-yl)pyridine-4-carbonitrile]: 10 to 100 nM. Take `Cc1nc2cc(F)c(F)cc2n1-c1cccc(Nc2ccc(C(F)(F)F)cc2)n1` [compound 601, 6-(5,6-difluoro-2-methyl-1H-benzimidazol-1-yl)-N-[4-(trifluoromethyl)phenyl]pyridin-2-amine]: the EC50 lay within 10 to 100 nM. Consider `Cc1nc2cc(F)c(F)cc2n1-c1cccc(Nc2ccc(OC(F)F)cc2)n1` [compound 602, N-[4-(difluoromethoxy)phenyl]-6-(5,6-difluoro-2-methyl-1H-benzimidazol-1-yl)pyridin-2-amine], for which the concentration for a half-maximal effect (EC50) was in the range of 10 to 100 nM. For `Cc1nc2cc(F)c(F)cc2n1-c1cccc(Nc2ccc(OC(F)(F)F)cc2)n1` [compound 603, 6-(5,6-difluoro-2-methyl-1H-benzimidazol-1-yl)-N-[4-(trifluoromethoxy)phenyl]pyridin-2-amine] the value was 100 to 3000 nM; for `Cc1nc2ccccc2n1-c1cc(N)cc(Nc2ccc(OC(F)(F)F)cc2)n1` [compound 604], 100 to 3000 nM. Consider `Cc1nc2ccccc2n1-c1cc(N)cc(Nc2ccc(F)cc2)n1` [compound 605, N^2-(4-fluorophenyl)-6-(2-methyl-1H-benzimidazol-1-yl)pyridine-2,4-diamine], for which the EC50 was 100 to 3000 nM. For `Cc1ccc(Nc2cc(C#N)cc(-n3c(C)nc4ccc(F)cc43)n2)cc1` [compound 611, 2-(6-fluoro-2-methyl-1H-benzimidazol-1-yl)-6-[(4-methylphenyl)amino]pyridine-4-carbonitrile] the value was 1 to 10 nM. For `Cc1nc2ccc(F)cc2n1-c1cc(C#N)cc(Nc2ccc(Cl)cc2)n1` [compound 612, 2-[(4-chlorophenyl)amino]-6-(6-fluoro-2-methyl-1H-benzimidazol-1-yl)pyridine-4-carbonitrile] the value was 10 to 100 nM.

Take `COc1ccc(Nc2cccc(-n3c(C)nc4cc(F)c(F)cc43)n2)cc1` [compound 613, 6-(5,6-difluoro-2-methyl-1H-benzimidazol-1-yl)-N-(4-methoxyphenyl)pyridin-2-amine]: the concentration for a half-maximal effect (EC50) was in the range of 10 to 100 nM. Take `Cc1ccc(Nc2cccc(-n3c(C)nc4cc(F)c(F)cc43)n2)cc1` [compound 614, 6-(5,6-difluoro-2-methyl-1H-benzimidazol-1-yl)-N-(4-methylphenyl)pyridin-2-amine]: the EC50 lay within 10 to 100 nM. Consider `Cc1nc2cc(F)c(F)cc2n1-c1cccc(Nc2ccc(Cl)cc2)n1` [compound 615, N-(4-chlorophenyl)-6-(5,6-difluoro-2-methyl-1H-benzimidazol-1-yl)pyridin-2-amine], for which the EC50 was 100 to 3000 nM. With `Cc1nc2ccccc2n1-c1cncc(Nc2ccc(Br)cc2)n1` [compound 616, N-(4-bromophenyl)-6-(2-methyl-1H-benzimidazol-1-yl)pyrazin-2-amine], the EC50 lay in the range of 1 to 10 nM. For `Cc1ccc(Nc2cc(-n3c(C)ccc3C)cc(-n3c(C)nc4ccccc43)n2)cc1` [compound 617, 4-(2,5-dimethyl-1H-pyrrol-1-yl)-6-(2-methyl-1H-benzimidazol-1-yl)-N-(4-methylphenyl)pyridin-2-amine] the value was 10 to 100 nM. For `Cc1ccc(C)n1-c1cc(Nc2ccc(Cl)cc2)nc(-n2c(C)nc3ccccc32)c1` [compound 618, N-(4-chlorophenyl)-4-(2,5-dimethyl-1H-pyrrol-1-yl)-6-(2-methyl-1H-benzimidazol-1-yl)pyridin-2-amine] the value was 100 to 3000 nM.

`Cc1nc2ccccc2n1-c1cncc(Nc2ccc(I)cc2)n1` [compound 619, N-(4-iodophenyl)-6-(2-methyl-1H-benzimidazol-1-yl)pyrazin-2-amine]: the concentration for a half-maximal effect (EC50) was in the range of 1 to 10 nM. For `CCc1nc2ccc(F)cc2n1-c1cncc(Nc2ccccc2)n1` [compound 620, 6-(2-ethyl-6-fluoro-1H-benzimidazol-1-yl)-N-phenylpyrazin-2-amine] the value was 100 to 3000 nM.

In the case of `CCc1nn2ccccc2c1-c1cncc(Nc2ccc(OC)cc2)n1` [compound 627, 6-(2-ethylpyrazolo[1,5-a]pyridin-3-yl)-N-(4-methoxyphenyl)pyrazin-2-amine], the half-maximal effective concentration (EC50) was below 1 nM.

Consider `CCc1nn2ccccc2c1-c1cncc(Nc2ccc(C)cc2)n1` [compound 628, 6-(2-ethylpyrazolo[1,5-a]pyridin-3-yl)-N-(4-methylphenyl)pyrazin-2-amine], for which the EC50 was below 1 nM.

As a reminder, the EC50 is the concentration needed to bring the measured effect to its halfway point.

(Values after patent US10584115B2, “Substituted pyridine and pyrazine BMI-1 inhibitors” (PTC Therapeutics, Inc., priority 2013, dated 2020).)
